Laboratory results taken from doi:10.1101/2023.11.24.568596v1 (biorxiv, 2023).
Each block holds one compound with its values, some of them ahead of it.

Columns and labels:
Conditions in all cases: binder
FLT1 = FLT1 (Homo sapiens, UniProt P17948)
GPRK5 = GPRK5 (Homo sapiens, UniProt P34947)
CASK = molecular target: T1, CASK (Homo sapiens, UniProt O14936)
T1 sequence (O14936 1-926): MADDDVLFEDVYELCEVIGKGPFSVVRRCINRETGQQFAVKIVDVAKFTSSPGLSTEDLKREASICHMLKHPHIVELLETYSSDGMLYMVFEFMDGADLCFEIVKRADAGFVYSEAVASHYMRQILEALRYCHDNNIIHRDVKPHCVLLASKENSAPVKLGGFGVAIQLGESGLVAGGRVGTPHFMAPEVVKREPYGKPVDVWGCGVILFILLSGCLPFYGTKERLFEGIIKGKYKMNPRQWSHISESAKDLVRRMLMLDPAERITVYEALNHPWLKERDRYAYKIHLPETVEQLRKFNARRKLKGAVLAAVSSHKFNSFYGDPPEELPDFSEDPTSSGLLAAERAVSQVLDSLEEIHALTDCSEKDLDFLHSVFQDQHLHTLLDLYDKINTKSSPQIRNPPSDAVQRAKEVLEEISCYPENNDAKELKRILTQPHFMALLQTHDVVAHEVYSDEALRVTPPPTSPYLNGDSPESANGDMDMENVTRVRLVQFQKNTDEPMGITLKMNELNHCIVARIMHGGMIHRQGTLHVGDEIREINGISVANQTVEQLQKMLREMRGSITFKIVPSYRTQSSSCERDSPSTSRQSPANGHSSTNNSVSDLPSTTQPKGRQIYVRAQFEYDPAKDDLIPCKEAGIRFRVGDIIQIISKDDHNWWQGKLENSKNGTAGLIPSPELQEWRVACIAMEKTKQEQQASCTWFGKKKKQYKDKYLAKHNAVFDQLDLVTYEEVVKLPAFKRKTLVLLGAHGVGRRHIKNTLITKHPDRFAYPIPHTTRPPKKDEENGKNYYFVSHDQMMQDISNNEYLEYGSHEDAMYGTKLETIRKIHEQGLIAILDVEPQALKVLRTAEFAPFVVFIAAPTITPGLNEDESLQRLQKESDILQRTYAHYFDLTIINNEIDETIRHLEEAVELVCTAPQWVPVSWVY

DCAMKL1 = molecular target: T2, DCAMKL1 (Homo sapiens, UniProt O15075)
T2 sequence (O15075 1-740): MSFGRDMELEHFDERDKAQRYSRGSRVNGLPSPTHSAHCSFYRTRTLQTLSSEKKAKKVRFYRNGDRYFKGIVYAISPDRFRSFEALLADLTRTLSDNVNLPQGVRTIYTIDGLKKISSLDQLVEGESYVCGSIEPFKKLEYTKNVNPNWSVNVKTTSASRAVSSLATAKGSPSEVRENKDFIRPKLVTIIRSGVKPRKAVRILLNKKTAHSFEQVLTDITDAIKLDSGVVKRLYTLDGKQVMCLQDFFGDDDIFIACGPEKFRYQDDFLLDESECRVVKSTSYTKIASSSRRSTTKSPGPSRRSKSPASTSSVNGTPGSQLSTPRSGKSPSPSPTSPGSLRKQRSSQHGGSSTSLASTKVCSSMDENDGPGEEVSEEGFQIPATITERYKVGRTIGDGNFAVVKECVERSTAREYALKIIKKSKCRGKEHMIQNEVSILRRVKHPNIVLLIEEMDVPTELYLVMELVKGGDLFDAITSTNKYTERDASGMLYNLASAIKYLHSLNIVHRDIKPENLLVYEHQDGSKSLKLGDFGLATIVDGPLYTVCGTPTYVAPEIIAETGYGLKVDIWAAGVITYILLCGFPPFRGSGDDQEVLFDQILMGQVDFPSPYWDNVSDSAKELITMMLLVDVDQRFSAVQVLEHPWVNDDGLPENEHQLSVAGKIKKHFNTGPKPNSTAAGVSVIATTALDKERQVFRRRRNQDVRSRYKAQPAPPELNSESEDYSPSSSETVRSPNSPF

Erk3 = Erk3 (Homo sapiens, UniProt Q16659)
Chain of Erk3 (Q16659 whole entry): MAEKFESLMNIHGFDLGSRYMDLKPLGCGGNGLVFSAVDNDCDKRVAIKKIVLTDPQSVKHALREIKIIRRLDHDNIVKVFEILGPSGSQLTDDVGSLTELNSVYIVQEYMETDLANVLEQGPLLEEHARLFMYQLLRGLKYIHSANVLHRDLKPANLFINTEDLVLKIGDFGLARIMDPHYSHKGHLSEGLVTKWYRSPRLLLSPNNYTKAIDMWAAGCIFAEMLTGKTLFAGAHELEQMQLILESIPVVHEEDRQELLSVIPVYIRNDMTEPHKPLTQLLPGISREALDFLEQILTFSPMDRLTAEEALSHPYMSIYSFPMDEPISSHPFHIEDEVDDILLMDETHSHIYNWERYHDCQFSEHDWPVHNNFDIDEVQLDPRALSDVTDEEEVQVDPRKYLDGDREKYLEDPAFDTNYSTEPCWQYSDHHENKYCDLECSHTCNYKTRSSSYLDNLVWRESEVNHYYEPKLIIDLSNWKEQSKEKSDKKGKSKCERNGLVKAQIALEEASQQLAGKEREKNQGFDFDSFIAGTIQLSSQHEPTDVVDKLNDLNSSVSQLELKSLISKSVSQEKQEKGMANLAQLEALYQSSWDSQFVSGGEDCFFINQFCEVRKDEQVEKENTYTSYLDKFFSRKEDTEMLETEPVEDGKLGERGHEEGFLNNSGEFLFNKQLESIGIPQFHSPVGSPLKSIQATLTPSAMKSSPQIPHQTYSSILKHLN

MAP2K6 = molecular target: T3, MAP2K6 (Homo sapiens, UniProt P52564)
T3 sequence (P52564 1-334): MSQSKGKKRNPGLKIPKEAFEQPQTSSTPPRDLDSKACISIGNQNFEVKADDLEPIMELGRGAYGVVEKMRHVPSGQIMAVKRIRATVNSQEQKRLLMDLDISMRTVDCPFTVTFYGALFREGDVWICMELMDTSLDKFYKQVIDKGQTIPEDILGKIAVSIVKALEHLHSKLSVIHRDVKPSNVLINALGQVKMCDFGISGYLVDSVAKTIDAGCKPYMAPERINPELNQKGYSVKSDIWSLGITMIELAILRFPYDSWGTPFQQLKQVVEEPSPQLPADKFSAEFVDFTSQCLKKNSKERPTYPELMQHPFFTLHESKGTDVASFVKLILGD

FES = FES (Homo sapiens, UniProt P07332)
EphA4 = EphA4 (Homo sapiens, UniProt P54764)
STLK3 = STLK3 (Homo sapiens, UniProt Q9UEW8)
TAF1 = TAF1 (Homo sapiens, UniProt P21675)
Chain of TAF1 (P21675 whole entry): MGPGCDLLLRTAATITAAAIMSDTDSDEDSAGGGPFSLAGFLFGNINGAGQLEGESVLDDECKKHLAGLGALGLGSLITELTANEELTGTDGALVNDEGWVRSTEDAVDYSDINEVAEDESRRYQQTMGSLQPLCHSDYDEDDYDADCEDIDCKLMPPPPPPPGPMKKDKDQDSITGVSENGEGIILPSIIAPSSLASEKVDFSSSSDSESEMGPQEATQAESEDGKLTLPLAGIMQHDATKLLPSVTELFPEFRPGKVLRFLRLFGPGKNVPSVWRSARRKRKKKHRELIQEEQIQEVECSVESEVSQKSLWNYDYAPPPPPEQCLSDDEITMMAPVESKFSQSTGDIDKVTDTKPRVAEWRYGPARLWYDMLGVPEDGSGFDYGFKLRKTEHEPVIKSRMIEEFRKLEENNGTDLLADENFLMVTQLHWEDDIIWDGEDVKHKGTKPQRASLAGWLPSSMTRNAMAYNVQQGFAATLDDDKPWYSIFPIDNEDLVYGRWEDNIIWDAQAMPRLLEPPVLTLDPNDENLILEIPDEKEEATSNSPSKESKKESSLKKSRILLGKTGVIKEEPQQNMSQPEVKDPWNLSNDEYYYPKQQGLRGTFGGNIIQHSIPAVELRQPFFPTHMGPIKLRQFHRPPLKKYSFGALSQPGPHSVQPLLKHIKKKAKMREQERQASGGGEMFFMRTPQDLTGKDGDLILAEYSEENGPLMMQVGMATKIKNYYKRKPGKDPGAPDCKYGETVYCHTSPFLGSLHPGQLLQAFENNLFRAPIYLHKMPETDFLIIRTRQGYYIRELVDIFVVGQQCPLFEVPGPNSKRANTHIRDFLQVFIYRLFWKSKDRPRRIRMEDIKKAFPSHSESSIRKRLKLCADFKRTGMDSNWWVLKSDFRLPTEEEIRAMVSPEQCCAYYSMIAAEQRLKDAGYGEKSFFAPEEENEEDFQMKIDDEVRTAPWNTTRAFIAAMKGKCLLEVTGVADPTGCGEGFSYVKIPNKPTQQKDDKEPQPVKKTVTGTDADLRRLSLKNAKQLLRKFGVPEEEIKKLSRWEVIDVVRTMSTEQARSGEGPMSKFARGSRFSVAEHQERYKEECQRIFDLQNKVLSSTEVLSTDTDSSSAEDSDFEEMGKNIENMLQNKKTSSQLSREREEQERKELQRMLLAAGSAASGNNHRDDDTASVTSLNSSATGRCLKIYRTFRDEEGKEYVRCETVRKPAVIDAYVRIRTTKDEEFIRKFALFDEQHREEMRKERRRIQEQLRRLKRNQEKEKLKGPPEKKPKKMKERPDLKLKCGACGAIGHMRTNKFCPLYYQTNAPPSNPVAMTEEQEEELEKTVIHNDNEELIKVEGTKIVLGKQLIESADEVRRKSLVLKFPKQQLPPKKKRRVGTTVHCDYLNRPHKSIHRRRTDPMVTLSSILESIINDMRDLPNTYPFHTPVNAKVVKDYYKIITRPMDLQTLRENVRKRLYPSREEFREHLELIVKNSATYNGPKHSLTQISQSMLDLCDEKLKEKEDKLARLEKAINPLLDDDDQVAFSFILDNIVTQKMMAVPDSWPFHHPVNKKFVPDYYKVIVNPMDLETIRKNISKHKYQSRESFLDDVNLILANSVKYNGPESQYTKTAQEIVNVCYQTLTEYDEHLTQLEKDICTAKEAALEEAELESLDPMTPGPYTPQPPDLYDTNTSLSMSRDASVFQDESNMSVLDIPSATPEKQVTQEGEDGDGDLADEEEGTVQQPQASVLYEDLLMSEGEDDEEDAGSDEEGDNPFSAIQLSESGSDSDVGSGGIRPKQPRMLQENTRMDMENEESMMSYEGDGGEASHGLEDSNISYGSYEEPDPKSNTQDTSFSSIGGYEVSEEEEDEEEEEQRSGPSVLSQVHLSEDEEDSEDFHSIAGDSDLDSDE

Erk2 = Erk2 (Homo sapiens, UniProt P28482)
Chain of Erk2 (P28482 whole entry): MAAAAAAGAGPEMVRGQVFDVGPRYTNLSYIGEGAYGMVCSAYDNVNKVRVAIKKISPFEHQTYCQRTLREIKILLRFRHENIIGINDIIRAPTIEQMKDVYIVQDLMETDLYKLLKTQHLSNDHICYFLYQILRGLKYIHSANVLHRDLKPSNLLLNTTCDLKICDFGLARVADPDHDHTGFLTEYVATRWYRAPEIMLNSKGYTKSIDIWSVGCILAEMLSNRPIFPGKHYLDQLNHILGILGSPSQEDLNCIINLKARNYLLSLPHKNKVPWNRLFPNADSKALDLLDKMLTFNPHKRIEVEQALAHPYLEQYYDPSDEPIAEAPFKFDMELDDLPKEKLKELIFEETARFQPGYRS

Chain of FLT1 (P17948 whole entry): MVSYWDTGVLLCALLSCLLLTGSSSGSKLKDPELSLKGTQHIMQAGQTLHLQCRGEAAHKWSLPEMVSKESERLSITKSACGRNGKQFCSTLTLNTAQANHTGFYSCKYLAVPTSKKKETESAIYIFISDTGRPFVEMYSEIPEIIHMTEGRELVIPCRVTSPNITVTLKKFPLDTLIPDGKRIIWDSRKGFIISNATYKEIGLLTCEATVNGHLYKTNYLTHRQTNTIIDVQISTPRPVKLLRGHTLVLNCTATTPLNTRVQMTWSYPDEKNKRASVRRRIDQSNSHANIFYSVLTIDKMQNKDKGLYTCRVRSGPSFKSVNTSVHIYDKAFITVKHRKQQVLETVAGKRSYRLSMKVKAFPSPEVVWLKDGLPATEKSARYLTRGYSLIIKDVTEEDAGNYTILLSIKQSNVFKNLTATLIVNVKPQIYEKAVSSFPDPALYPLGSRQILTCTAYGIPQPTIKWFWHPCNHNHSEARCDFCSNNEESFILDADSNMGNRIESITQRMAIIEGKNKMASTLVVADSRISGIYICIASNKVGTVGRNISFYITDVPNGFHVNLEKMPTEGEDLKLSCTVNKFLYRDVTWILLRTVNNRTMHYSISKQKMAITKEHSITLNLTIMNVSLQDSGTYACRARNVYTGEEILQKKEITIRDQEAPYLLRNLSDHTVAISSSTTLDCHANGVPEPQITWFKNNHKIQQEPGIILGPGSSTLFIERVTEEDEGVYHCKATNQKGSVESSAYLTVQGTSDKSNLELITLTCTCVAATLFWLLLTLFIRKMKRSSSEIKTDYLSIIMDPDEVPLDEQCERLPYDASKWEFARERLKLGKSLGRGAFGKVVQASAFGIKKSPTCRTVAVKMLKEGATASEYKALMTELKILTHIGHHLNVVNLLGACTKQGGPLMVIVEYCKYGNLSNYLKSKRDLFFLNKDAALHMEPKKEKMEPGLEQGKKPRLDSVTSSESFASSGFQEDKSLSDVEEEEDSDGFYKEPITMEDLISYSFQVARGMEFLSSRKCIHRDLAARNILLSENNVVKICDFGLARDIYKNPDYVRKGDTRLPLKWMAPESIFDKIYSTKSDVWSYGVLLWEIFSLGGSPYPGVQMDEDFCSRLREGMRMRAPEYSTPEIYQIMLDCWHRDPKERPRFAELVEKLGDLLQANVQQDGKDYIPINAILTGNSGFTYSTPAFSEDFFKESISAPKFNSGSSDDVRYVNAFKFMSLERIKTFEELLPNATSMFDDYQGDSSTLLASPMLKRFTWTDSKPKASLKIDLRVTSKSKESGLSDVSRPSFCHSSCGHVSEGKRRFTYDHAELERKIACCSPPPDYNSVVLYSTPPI
Chain of GPRK5 (P34947 whole entry): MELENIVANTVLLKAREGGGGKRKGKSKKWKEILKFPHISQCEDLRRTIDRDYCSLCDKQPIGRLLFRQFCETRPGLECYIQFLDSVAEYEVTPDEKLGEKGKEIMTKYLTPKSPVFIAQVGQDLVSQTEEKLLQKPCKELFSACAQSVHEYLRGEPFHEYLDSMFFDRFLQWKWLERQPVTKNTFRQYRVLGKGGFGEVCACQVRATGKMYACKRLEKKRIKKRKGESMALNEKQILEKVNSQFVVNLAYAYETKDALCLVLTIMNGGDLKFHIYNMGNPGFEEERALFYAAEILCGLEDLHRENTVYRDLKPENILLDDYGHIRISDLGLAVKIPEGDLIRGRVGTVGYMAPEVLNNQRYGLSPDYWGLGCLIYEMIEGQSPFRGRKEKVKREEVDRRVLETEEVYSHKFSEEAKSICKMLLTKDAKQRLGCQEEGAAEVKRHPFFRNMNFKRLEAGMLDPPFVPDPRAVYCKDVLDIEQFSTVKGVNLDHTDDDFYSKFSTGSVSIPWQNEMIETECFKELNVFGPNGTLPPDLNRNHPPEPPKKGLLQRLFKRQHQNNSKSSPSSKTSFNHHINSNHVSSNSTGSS

dTm 33 (FLT1): 4.9 °C
dTm 33 (GPRK5): -0.8 °C
dTm 33 (CASK): 0.2 °C
dTm 33 (DCAMKL1): 1.2 °C
dTm 33 (Erk3): 0.9 °C
dTm 33 (MAP2K6): 10.2 °C
dTm 33 (FES): 8.9 °C
dTm 33 (EphA4): 3.5 °C
dTm 33 (STLK3): 16.8 °C
dTm 33 (TAF1): -0.2 °C
dTm 33 (Erk2): -0.7 °C
SMILES: Cc1cccc(-c2ccc(-c3cc4cnc(Nc5ccc(F)c(CO)c5)nc4n(CCCCN)c3=O)c(Cl)c2)n1 [compound 33, 8-(4-Aminobutyl)-6-(2-chloro-4-(6-methylpyridin-2-yl)phenyl)-2-((4-fluoro-3-(hydroxymethyl)phenyl)amino)pyrido[2,3-d]pyrimidin-7(8H)-one]

dTm 34 (FLT1): 3.2 °C
dTm 34 (GPRK5): -0.7 °C
dTm 34 (CASK): -0.2 °C
dTm 34 (DCAMKL1): -0.3 °C
dTm 34 (Erk3): 0.7 °C
dTm 34 (MAP2K6): 5.4 °C
dTm 34 (FES): 7.6 °C
dTm 34 (EphA4): 2.5 °C
dTm 34 (STLK3): 11.0 °C
dTm 34 (TAF1): 0.1 °C
dTm 34 (Erk2): -2.7 °C
SMILES: COc1ccc(O)c(Nc2ncc3cc(-c4ccc(-c5cccc(C)n5)cc4Cl)c(=O)n(CCCCN)c3n2)c1 [compound 34, 8-(4-Aminobutyl)-6-(2-chloro-4-(6-methylpyridin-2-yl)phenyl)-2-((2-hydroxy-5-methoxy-phenyl)amino)pyrido[2,3-d]pyrimidin-7(8H)-one]

dTm 35 (FLT1): 5.6 °C
dTm 35 (GPRK5): -2.1 °C
dTm 35 (CASK): 0.0 °C
dTm 35 (DCAMKL1): 2.0 °C
dTm 35 (Erk3): 0.6 °C
dTm 35 (MAP2K6): 6.8 °C
dTm 35 (FES): 8.3 °C
dTm 35 (EphA4): 2.7 °C
dTm 35 (STLK3): 13.4 °C
dTm 35 (TAF1): -0.7 °C
dTm 35 (Erk2): -3.0 °C
SMILES: COc1cc(N2CCOCC2)ccc1Nc1ncc2cc(-c3ccc(-c4cccc(C)n4)cc3Cl)c(=O)n(CCCCN)c2n1 [compound 35, 8-(4-Aminobutyl)-6-(2-chloro-4-(6-methylpyridin-2-yl)phenyl)-2-((2-methoxy-4-morpholino-phenyl)amino)pyrido[2,3-d]pyrimidin-7(8H)-one]

dTm 36 (FLT1): 4.4 °C
dTm 36 (GPRK5): -1.3 °C
dTm 36 (CASK): -0.4 °C
dTm 36 (DCAMKL1): 1.3 °C
dTm 36 (Erk3): 0.5 °C
dTm 36 (MAP2K6): 4.4 °C
dTm 36 (FES): 9.0 °C
dTm 36 (EphA4): 2.4 °C
dTm 36 (STLK3): 9.3 °C
dTm 36 (TAF1): -0.4 °C
dTm 36 (Erk2): -2.7 °C
SMILES: COc1cc(N2CCN(C)CC2)ccc1Nc1ncc2cc(-c3ccc(-c4cccc(C)n4)cc3Cl)c(=O)n(CCCCN)c2n1 [compound 36, 8-(4-Aminobutyl)-6-(2-chloro-4-(6-methylpyridin-2-yl)phenyl)-2-((2-methoxy-4-(4-methylpiperazin-1-yl)phenyl)amino)pyrido[2,3-d]pyrimidin-7(8H)-one]
